# Source: PubChem BioAssay AID1745844 (Carcinogenic Potency Database (CPDB), 2022)
# Tested on: rodent lifetime carcinogenesis bioassay, tumor incidence TD50
# Assay: carcinogenic potency in animals, long-term in vivo studies, CPDB compilation (AID 1745844)
# Conditions: by gavage
smiles,measurement,setting,value
ClCC(Cl)CCl,TD50,"mouse, strain B6C3F1, females, site: Harderian gland, lesion: adenoma + adenoma, bilateral, dosed 88 weeks, study length 104 weeks",7.05 mg/kg/day
same,TD50,"mouse, strain B6C3F1, females, site: all sites, lesion: histiocytic sarcoma + malignant lymphoma, histiocytic type + malignant lymphoma, mixed type + malignant lymphoma, lymphocytic, dosed 88 weeks, study length 104 weeks",8.64 mg/kg/day
same,TD50,"mouse, strain B6C3F1, females, site: all sites, lesion: malignant lymphoma, histiocytic type + malignant lymphoma, mixed type + malignant lymphoma, lymphocytic type + malignant lymph, dosed 88 weeks, study length 104 weeks",7.08 mg/kg/day
same,TD50,"mouse, strain B6C3F1, females, site: any site (literature study), lesion: several types, types named in the paper, dosed 88 weeks, study length 104 weeks",0.806 mg/kg/day
same,TD50,"mouse, strain B6C3F1, females, site: forestomach + Harderian gland + liver + palate + pharynx + uterus, lesion: squamous-cell carcinoma + squamous-cell papilloma + adenoma + adenoma, bilateral + hepatocellular adenoma + hepatocellular carcino, dosed 88 weeks, study length 104 weeks",0.826 mg/kg/day
same,TD50,"mouse, strain B6C3F1, females, site: forestomach, lesion: squamous-cell carcinoma + squamous-cell papilloma, dosed 88 weeks, study length 104 weeks",0.828 mg/kg/day
same,TD50,"mouse, strain B6C3F1, females, site: forestomach, lesion: squamous-cell carcinoma, dosed 88 weeks, study length 104 weeks",0.97 mg/kg/day
same,TD50,"mouse, strain B6C3F1, females, site: forestomach, lesion: squamous-cell papilloma, dosed 88 weeks, study length 104 weeks",1.64 mg/kg/day
same,TD50,"mouse, strain B6C3F1, females, site: liver, lesion: hepatocellular adenoma + hepatoblastoma + hepatocellular carcinoma, dosed 88 weeks, study length 104 weeks",2.93 mg/kg/day
same,TD50,"mouse, strain B6C3F1, females, site: liver, lesion: hepatocellular adenoma + hepatocellular carcinoma, dosed 88 weeks, study length 104 weeks",2.93 mg/kg/day
same,TD50,"mouse, strain B6C3F1, females, site: liver, lesion: hepatocellular adenoma, dosed 88 weeks, study length 104 weeks",3.33 mg/kg/day
same,TD50,"mouse, strain B6C3F1, females, site: liver, lesion: hepatocellular carcinoma, dosed 88 weeks, study length 104 weeks",28.7 mg/kg/day
same,TD50,"mouse, strain B6C3F1, females, site: lung, lesion: alveolar/bronchiolar adenoma + alveolar/bronchiolar carcinoma, dosed 88 weeks, study length 104 weeks",14.3 mg/kg/day
same,TD50,"mouse, strain B6C3F1, females, site: lung, lesion: alveolar/bronchiolar adenoma, dosed 88 weeks, study length 104 weeks",14.6 mg/kg/day
same,TD50,"mouse, strain B6C3F1, females, site: palate + pharynx + tongue, lesion: squamous-cell carcinoma + squamous-cell papilloma, dosed 88 weeks, study length 104 weeks",47 mg/kg/day
same,TD50,"mouse, strain B6C3F1, females, site: palate + pharynx, lesion: squamous-cell carcinoma, dosed 88 weeks, study length 104 weeks",154 mg/kg/day
same,TD50,"mouse, strain B6C3F1, females, site: uterus, lesion: endometrial stromal polyp, dosed 88 weeks, study length 104 weeks",22.9 mg/kg/day
same,TD50,"mouse, strain B6C3F1, females, site: uterus, lesion: endometrium, adenocarcinoma, dosed 88 weeks, study length 104 weeks",8.47 mg/kg/day
same,TD50,"mouse, strain B6C3F1, females, site: uterus, lesion: endometrium, adenoma + endometrium, adenocarcinoma, dosed 88 weeks, study length 104 weeks",6.62 mg/kg/day
same,TD50,"mouse, strain B6C3F1, females, site: uterus, lesion: endometrium, adenoma, dosed 88 weeks, study length 104 weeks",34.9 mg/kg/day
same,TD50,"mouse, strain B6C3F1, males, site: Harderian gland, lesion: adenoma, dosed 90 weeks, study length 104 weeks",13.7 mg/kg/day
same,TD50,"mouse, strain B6C3F1, males, site: any site (literature study), lesion: several types, types named in the paper, dosed 90 weeks, study length 104 weeks",1.06 mg/kg/day
same,TD50,"mouse, strain B6C3F1, males, site: forestomach + Harderian gland + liver, lesion: squamous-cell carcinoma + squamous-cell papilloma + adenoma + hepatocellular adenoma + hepatocellular carcinoma, dosed 90 weeks, study length 104 weeks",0.996 mg/kg/day
same,TD50,"mouse, strain B6C3F1, males, site: forestomach, lesion: squamous-cell carcinoma + squamous-cell papilloma, dosed 90 weeks, study length 104 weeks",0.928 mg/kg/day
same,TD50,"mouse, strain B6C3F1, males, site: forestomach, lesion: squamous-cell carcinoma, dosed 90 weeks, study length 104 weeks",1.34 mg/kg/day
same,TD50,"mouse, strain B6C3F1, males, site: forestomach, lesion: squamous-cell papilloma, dosed 90 weeks, study length 104 weeks",1.63 mg/kg/day
same,TD50,"mouse, strain B6C3F1, males, site: liver, lesion: hepatocellular adenoma + hepatoblastoma + hepatocellular carcinoma, dosed 90 weeks, study length 104 weeks",2.13 mg/kg/day
same,TD50,"mouse, strain B6C3F1, males, site: liver, lesion: hepatocellular adenoma + hepatocellular carcinoma, dosed 90 weeks, study length 104 weeks",2.13 mg/kg/day
same,TD50,"mouse, strain B6C3F1, males, site: liver, lesion: hepatocellular adenoma, dosed 90 weeks, study length 104 weeks",2.87 mg/kg/day
same,TD50,"mouse, strain B6C3F1, males, site: liver, lesion: hepatocellular carcinoma, dosed 90 weeks, study length 104 weeks",6.28 mg/kg/day
same,TD50,"mouse, strain B6C3F1, males, site: lung, lesion: alveolar/bronchiolar adenoma + alveolar/bronchiolar carcinoma, dosed 90 weeks, study length 104 weeks",9.32 mg/kg/day
same,TD50,"mouse, strain B6C3F1, males, site: lung, lesion: alveolar/bronchiolar adenoma, dosed 90 weeks, study length 104 weeks",11.2 mg/kg/day
same,TD50,"mouse, strain B6C3F1, males, site: tongue, lesion: squamous-cell papilloma, dosed 90 weeks, study length 104 weeks",454 mg/kg/day
same,TD50,"rat, strain Fischer 344, females, site: Zymbal's gland, lesion: carcinoma, dosed 91 weeks, study length 105 weeks",59 mg/kg/day
same,TD50,"rat, strain Fischer 344, females, site: all sites, lesion: mononuclear-cell leukemia, dosed 91 weeks, study length 105 weeks",7.11 mg/kg/day
same,TD50,"rat, strain Fischer 344, females, site: any site (literature study), lesion: several types, types named in the paper, dosed 91 weeks, study length 105 weeks",1.02 mg/kg/day
same,TD50,"rat, strain Fischer 344, females, site: clitoral gland + forestomach + mammary gland + palate + pharynx + tongue + Zymbal's gland, lesion: adenoma + adenoma, bilateral + carcinoma + carcinoma, bilateral + squamous-cell carcinoma + squamous-cell papilloma + adenocarcinoma, dosed 91 weeks, study length 105 weeks",1.07 mg/kg/day
same,TD50,"rat, strain Fischer 344, females, site: clitoral gland, lesion: adenoma + adenoma, bilateral + carcinoma + carcinoma, bilateral, dosed 91 weeks, study length 105 weeks",3.58 mg/kg/day
same,TD50,"rat, strain Fischer 344, females, site: clitoral gland, lesion: adenoma + adenoma, bilateral, dosed 91 weeks, study length 105 weeks",4.04 mg/kg/day
same,TD50,"rat, strain Fischer 344, females, site: clitoral gland, lesion: carcinoma + carcinoma, bilateral, dosed 91 weeks, study length 105 weeks",49.5 mg/kg/day
same,TD50,"rat, strain Fischer 344, females, site: colon + jejunum, lesion: adenocarcinoma, dosed 91 weeks, study length 105 weeks",78.4 mg/kg/day
same,TD50,"rat, strain Fischer 344, females, site: forestomach, lesion: squamous-cell carcinoma + squamous-cell papilloma, dosed 91 weeks, study length 105 weeks",1.64 mg/kg/day
same,TD50,"rat, strain Fischer 344, females, site: forestomach, lesion: squamous-cell carcinoma, dosed 91 weeks, study length 105 weeks",7.77 mg/kg/day
same,TD50,"rat, strain Fischer 344, females, site: forestomach, lesion: squamous-cell papilloma, dosed 91 weeks, study length 105 weeks",1.94 mg/kg/day
same,TD50,"rat, strain Fischer 344, females, site: liver, lesion: hepatocellular adenoma + hepatoblastoma + hepatocellular carcinoma, dosed 91 weeks, study length 105 weeks",81.4 mg/kg/day
same,TD50,"rat, strain Fischer 344, females, site: mammary gland, lesion: adenocarcinoma + adenoma + fibroadenoma, dosed 91 weeks, study length 105 weeks",1.98 mg/kg/day
same,TD50,"rat, strain Fischer 344, females, site: mammary gland, lesion: adenocarcinoma + adenoma, dosed 91 weeks, study length 105 weeks",5.5 mg/kg/day
same,TD50,"rat, strain Fischer 344, females, site: mammary gland, lesion: adenocarcinoma, dosed 91 weeks, study length 105 weeks",5.91 mg/kg/day
same,TD50,"rat, strain Fischer 344, females, site: mammary gland, lesion: adenoma + fibroadenoma, dosed 91 weeks, study length 105 weeks",3.32 mg/kg/day
